In patent publication US8637674B2, “Pyrazole derivatives, preparation method thereof, and composition for prevention and treatment of osteoporosis containing same” (EWHA University-Industry Collaboration Foundation, priority 2009, dated 2014):

target: reactive oxygen species generated in kidney membrane (NADPH oxidase); assay: Inhibition of reactive oxygen species generation in kidney membrane (lucigenin-based assay); format: biochemical, rat (Rattus norvegicus); conditions: 37° C. for 10 minutes, luminescence, compounds at 40, 10, 2.5, 0.625, 0 μM
Procedure: A kidney was isolated from a rat (Rattus norvegicus) and washed with phosphate buffered saline (PBS). The tissue was soaked in 20 mL of PBS buffer containing a protease inhibitor (Aprotinin 1 μg/mL-USB 11388, Leupeptin 1 μg/mL-USB-18413), finely disrupted using a mixer, and then transferred to a 50 mL conical tube (SPL 50050), followed by centrifugation at 10000 g for 10 minutes (MF-600 plus, Hanil) to sediment the undisrupted tissue. The supernatant was separated and collected in a fresh tube. The tube was placed in ice and subjected to sonication about 4 times each cycle for 30 seconds until the supernatant became clear (Branson Digital Sonifier, Model CE Converter 102C). The supernatant was transferred to a high-speed centrifugation tube (Beckman 331372) and then centrifuged at 100000 g for 1 hour (Optima™ L-90 K Preparative Ultracentrifuge, SW41Ti rotor, Beckman). After the supernatant was discarded, the remaining pellet was washed once with cold PBS and dissolved in 500 μL of cold PBS containing a protease inhibitor to obtain a murine kidney membrane.
Reactive oxygen species generated in the thus-obtained kidney membrane was analyzed by a lucigenin-based assay.
Specifically, each of the compounds synthesized in Examples of the present invention (40 μM, 10 μM, 2.5 μM, 0.625 μM, and 0 μM) was placed in a luminescence assay microplate, and the isolated kidney membrane and lucigenin were sequentially added thereto, followed by incubation at 37° C. for 10 minutes. Then, the intensity of luminescence was measured in a luminometer (MicroLumatPlus LB96V Microplate Luminometer, Berthold) to assay the generation of reactive oxygen species in the murine kidney membrane, followed by calculating an EC50 value of the inventive compounds.

| EC50 [µM] | SMILES |
| --- | --- |
| 10 | Oc1cc(CCc2ccccc2)nn1-c1ccccn1 [Compound 3d, 3-phenethyl-1-(pyridin-2-yl)-1H-pyrazol-5-ol] |
| 1.5 | Oc1cc(Cc2ccc(Cl)cc2)nn1-c1ccccn1 [Compound 3e, 3-(p-chlorobenzyl)-1-(pyridin-2-yl)-1H-pyrazol-5-ol] |
| 7.5 | Oc1cc(COc2ccccc2)nn1-c1ccccn1 [Compound 6a, 3-(phenoxymethyl)-1-(pyridin-2-yl)-1H-pyrazol-5-ol] |
| 0.5 | Oc1cc(C=Cc2ccccc2)nn1-c1ccccn1 [Compound 9a, 1-(pyridin-2-yl)-3-styryl-1H-pyrazol-5-ol] |
| 0.9 | CC(C)(C)[Si](C)(C)Oc1ccc(/C=C/c2cc(O)n(-c3ccccn3)n2)cc1 [Compound 9g] |

Continued, compound first:

| SMILES | EC50 [µM] |
| --- | --- |
| Oc1cc(COc2ccc3ccccc3c2)nn1-c1ccccn1 [Compound 6b, 3-((naphthalen-3-yloxy)methyl)-1-(pyridin-2-yl)-1H-pyrazol-5-ol] | 0.4 |
| Oc1cc(COc2ccc(Cl)cc2Cl)nn1-c1ccccn1 [Compound 6d, 3-((2,4-dichlorophenoxy)methyl)-1-(pyridin-2-yl)-1H-pyrazol-5-ol] | 1.8 |
| COc1ccc(C=Cc2cc(O)n(-c3ccccn3)n2)cc1 [Compound 9b, 3-(4-methoxystyryl)-1-(pyridin-2-yl)-1H-pyrazol-5-ol] | 0.5 |
| COc1ccc(C=Cc2cc(O)n(-c3ccccn3)n2)cc1OC [Compound 9c, 3-(3,4-dimethoxystyryl)-1-(pyridin-2-yl)-1H-pyrazol-5-ol] | 0.6 |
| Oc1cc(C=Cc2ccc(Cl)c(Cl)c2)nn1-c1ccccn1 [Compound 9d, 3-(3,4-dichlorostyryl)-1-(pyridin-2-yl)-1H-pyrazol-5-ol] | 1.7 |
| Oc1cc(C=Cc2ccc(C(F)(F)F)cc2)nn1-c1ccccn1 [Compound 9f, 3-(4-trifluoromethylstyryl)-1-(pyridin-2-yl)-1H-pyrazol-5-ol] | 0.5 |
| Oc1ccc(C=Cc2cc(O)n(-c3ccccn3)n2)cc1 [Compound 9k, 3-(4-hydroxystyryl)-1-(pyridin-2-yl)-1H-pyrazol-5-ol] | 1.5 |
